In experiment [1] the target is SUMO-activating enzyme (Homo sapiens, UniProt Q9UBT2). Kind of experiment: SUMOylation inhibitor hit validation, confirmation, SUMOylation inhibitor project, biochemical, AlphaScreen (AID 2018). Type of experiment: functional.
Experiment [2] has as its target Prothrombin (Homo sapiens, UniProt P00734). As to the kind of experiment: Thrombin 1536 HTS Dose Response Confirmation. [Related pubchem assays: 1046 (Thrombin 1536 HTS; hits were confirmed in this assay)]. The experiment is classed as functional.
Experiment [3] addresses T1, Leucine aminopeptidase (Plasmodium falciparum 3D7, UniProt Q8IL11).
T1 sequence (Q8IL11 whole entry): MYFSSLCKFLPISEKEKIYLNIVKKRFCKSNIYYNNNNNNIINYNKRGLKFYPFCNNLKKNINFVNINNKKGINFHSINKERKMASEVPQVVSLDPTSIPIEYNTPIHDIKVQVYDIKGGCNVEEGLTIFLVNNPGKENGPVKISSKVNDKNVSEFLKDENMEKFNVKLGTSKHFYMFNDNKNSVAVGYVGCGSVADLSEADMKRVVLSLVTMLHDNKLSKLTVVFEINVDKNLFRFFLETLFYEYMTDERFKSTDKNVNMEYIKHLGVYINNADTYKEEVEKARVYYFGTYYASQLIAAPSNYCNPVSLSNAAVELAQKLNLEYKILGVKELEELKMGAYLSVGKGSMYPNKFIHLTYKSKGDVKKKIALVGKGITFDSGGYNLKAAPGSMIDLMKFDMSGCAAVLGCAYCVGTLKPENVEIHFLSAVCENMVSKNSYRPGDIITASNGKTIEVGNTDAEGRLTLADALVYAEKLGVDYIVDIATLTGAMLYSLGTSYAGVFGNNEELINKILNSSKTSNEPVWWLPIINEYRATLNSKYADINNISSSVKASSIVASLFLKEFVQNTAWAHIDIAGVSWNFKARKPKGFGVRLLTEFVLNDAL
Kind of experiment: P. falciparum M17LAP inhibitors, primary screen, biochemical, fluorogenic H-Leu-NHMec substrate, 1536-well (AID 1619). The experiment is classed as functional.

Experiment [4] addresses DNA dC->dU-editing enzyme APOBEC-3G (Homo sapiens, UniProt Q9HC16). As to the kind of experiment: Dose Response confirmation of small molecule APOBEC3G DNA Deaminase Inhibitors via a fluorescence-based single-stranded DNA deaminase assay. [Related pubchem assays (depositor defined):AID493012, AID493028]. Type of experiment: functional.
Experiment [5] can be described thus: Luminescence Cell-Based Dose Response HTS to Identify Activators of Luciferase Translation or Activity in H4 […] Cells. [Related pubchem assays: 1829 (Project Summary), 1814 (Primary HTS)]. The experiment is classed as functional.
For experiment [6], the system named is H4. Kind of experiment: Luminescence Cell-Based Dose Response HTS to Identify Activators of 5'UTR Stem-Loop Driven Prion Protein mRNA Translation in H4 Neuroglioblastoma Cells. [Related pubchem assays: 1829 (Project Summary), 1814 (Primary HTS)]. The experiment is classed as functional. Particulars: Homo sapiens.
Experiment [7] is described as follows: Luminescence Cell-Based Dose Confirmation HTS to Identify Activators of 5'UTR Stem-Loop Driven Alpha-Synuclein mRNA Translation in H4 Neuroglioblastoma Cells. [Related pubchem assays: 1829 (Project Summary), 1814 (Primary HTS)]. Type of experiment: functional.
In experiment [8] the target is T2, Histone-lysine N-methyltransferase NSD2 (Homo sapiens, UniProt O96028).
T2 sequence (O96028 whole entry): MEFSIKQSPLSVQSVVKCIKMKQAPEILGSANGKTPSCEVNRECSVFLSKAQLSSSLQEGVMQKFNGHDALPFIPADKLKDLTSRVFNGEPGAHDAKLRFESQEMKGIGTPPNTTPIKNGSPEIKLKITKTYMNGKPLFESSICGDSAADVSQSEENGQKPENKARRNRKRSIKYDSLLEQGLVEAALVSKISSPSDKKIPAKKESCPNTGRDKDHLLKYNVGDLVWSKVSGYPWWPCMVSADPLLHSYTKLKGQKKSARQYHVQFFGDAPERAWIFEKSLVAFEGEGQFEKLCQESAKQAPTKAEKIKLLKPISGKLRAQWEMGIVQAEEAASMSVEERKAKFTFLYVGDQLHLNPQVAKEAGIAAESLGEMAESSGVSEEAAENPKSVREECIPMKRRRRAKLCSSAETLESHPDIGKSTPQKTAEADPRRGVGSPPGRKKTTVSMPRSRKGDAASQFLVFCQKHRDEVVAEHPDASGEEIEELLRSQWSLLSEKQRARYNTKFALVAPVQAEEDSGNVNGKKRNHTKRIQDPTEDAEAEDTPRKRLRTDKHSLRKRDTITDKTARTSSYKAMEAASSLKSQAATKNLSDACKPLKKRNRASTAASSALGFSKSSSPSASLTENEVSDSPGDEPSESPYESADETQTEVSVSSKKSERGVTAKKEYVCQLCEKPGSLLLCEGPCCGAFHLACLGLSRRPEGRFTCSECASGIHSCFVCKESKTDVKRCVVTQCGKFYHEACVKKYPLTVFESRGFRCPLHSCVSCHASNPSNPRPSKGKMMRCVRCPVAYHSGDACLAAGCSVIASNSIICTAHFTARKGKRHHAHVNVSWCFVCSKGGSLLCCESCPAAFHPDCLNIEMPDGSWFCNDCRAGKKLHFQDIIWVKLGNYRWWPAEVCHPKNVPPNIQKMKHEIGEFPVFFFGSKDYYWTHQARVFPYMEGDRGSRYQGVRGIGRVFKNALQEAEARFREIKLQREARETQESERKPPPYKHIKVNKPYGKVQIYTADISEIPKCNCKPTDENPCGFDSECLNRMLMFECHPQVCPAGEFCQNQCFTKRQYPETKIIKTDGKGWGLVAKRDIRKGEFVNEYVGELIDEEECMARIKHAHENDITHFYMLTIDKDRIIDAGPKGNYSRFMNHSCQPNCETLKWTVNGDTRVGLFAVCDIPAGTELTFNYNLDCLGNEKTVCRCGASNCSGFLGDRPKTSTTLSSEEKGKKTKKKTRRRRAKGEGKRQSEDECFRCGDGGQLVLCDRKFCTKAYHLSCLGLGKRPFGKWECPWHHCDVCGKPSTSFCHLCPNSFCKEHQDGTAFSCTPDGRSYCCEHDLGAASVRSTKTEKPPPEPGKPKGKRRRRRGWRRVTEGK
Type of experiment: biochemical.

Experiment [9] is described as follows: cytotoxicity in HEK-293T cells, dose response, cytotoxicity control for BCR NF-kB inhibitor project, luminescence, B-cell screen hits (AID 489021).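 Further: HEK-293T cells carrying an NF-kB luciferase reporter; cells exposed to compound for about 14 hours before viability readout.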 Type of experiment: functional, cell-based.
The subject of experiment [10] is HEK293. As to the kind of experiment: inhibitors of LMP1-driven NF-kB reporter, dose response, cell-based, HEK293, luciferase, cherry-pick (AID 588343). The experiment is classed as functional. The following applies: Homo sapiens.
A short description of experiment [11]: cytotoxicity toward NIH3T3 fibroblasts, dose response, counter-screen, cell-based, ATP luminescence, mouse fibroblasts (AID 2010).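 Further: cells exposed to compound for about 90 hours before reading.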 The experiment is classed as functional.
The nature of experiment [12]: inhibitors of intracellular T. cruzi replication, confirmation, NIH3T3 host cells, beta-gal luminescence (AID 2044).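 Further: intracellular parasites grown in NIH/3T3 mouse fibroblasts as host cells; luminescent beta-galactosidase reporter signal from transgenic T. cruzi replicating inside host cells; inhibitors lower the luminescence signal.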 The experiment is classed as functional, cell-based.
For experiment [13], the target named is Glucose-6-phosphate 1-dehydrogenase (Homo sapiens, UniProt P11413). As to the kind of experiment: human G6PD enzyme inhibitors, dose response, selectivity assay for P. falciparum G6PD inhibitor project, biochemical, fluorescence (AID 504792). The experiment is classed as functional.
Chain of Glucose-6-phosphate 1-dehydrogenase (P11413 whole entry, the tested form may be a part): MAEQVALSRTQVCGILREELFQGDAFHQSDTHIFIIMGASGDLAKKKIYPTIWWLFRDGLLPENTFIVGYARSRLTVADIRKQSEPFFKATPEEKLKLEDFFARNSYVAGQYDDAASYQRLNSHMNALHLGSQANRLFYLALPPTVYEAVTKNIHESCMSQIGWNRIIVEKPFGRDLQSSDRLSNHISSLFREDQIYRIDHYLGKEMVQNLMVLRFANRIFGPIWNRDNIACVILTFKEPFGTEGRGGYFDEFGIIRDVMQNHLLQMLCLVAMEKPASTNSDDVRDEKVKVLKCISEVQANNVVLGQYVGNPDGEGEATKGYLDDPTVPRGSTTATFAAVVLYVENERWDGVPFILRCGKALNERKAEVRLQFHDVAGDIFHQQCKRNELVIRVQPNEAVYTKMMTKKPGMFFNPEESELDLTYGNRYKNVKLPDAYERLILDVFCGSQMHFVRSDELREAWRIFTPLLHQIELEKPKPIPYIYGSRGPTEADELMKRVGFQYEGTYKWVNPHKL
Experiment [14] is described as follows: inhibitors of clade B AD8 Env fusion, dose response, cell-based, cherry-pick (AID 652062).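 Further: luciferase signal from cell-cell fusion driven by HIV-1 clade B AD8 Env; potency is for inhibitors of fusion seen as a drop in luminescence.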 The experiment is classed as functional.
In experiment [15] the target is T3, Fatty acid synthase (Homo sapiens, UniProt P49327). Kind of experiment: FAS thioesterase domain inhibitors, dose response, biochemical, kinetic fluorescence intensity (AID 624326).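 Further: rate of fluorescence rise from hydrolysis of a fluorogenic O-methyl fluorescein ester substrate.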 Type of experiment: functional.
T3 sequence (P49327 whole entry, the tested form may be a part): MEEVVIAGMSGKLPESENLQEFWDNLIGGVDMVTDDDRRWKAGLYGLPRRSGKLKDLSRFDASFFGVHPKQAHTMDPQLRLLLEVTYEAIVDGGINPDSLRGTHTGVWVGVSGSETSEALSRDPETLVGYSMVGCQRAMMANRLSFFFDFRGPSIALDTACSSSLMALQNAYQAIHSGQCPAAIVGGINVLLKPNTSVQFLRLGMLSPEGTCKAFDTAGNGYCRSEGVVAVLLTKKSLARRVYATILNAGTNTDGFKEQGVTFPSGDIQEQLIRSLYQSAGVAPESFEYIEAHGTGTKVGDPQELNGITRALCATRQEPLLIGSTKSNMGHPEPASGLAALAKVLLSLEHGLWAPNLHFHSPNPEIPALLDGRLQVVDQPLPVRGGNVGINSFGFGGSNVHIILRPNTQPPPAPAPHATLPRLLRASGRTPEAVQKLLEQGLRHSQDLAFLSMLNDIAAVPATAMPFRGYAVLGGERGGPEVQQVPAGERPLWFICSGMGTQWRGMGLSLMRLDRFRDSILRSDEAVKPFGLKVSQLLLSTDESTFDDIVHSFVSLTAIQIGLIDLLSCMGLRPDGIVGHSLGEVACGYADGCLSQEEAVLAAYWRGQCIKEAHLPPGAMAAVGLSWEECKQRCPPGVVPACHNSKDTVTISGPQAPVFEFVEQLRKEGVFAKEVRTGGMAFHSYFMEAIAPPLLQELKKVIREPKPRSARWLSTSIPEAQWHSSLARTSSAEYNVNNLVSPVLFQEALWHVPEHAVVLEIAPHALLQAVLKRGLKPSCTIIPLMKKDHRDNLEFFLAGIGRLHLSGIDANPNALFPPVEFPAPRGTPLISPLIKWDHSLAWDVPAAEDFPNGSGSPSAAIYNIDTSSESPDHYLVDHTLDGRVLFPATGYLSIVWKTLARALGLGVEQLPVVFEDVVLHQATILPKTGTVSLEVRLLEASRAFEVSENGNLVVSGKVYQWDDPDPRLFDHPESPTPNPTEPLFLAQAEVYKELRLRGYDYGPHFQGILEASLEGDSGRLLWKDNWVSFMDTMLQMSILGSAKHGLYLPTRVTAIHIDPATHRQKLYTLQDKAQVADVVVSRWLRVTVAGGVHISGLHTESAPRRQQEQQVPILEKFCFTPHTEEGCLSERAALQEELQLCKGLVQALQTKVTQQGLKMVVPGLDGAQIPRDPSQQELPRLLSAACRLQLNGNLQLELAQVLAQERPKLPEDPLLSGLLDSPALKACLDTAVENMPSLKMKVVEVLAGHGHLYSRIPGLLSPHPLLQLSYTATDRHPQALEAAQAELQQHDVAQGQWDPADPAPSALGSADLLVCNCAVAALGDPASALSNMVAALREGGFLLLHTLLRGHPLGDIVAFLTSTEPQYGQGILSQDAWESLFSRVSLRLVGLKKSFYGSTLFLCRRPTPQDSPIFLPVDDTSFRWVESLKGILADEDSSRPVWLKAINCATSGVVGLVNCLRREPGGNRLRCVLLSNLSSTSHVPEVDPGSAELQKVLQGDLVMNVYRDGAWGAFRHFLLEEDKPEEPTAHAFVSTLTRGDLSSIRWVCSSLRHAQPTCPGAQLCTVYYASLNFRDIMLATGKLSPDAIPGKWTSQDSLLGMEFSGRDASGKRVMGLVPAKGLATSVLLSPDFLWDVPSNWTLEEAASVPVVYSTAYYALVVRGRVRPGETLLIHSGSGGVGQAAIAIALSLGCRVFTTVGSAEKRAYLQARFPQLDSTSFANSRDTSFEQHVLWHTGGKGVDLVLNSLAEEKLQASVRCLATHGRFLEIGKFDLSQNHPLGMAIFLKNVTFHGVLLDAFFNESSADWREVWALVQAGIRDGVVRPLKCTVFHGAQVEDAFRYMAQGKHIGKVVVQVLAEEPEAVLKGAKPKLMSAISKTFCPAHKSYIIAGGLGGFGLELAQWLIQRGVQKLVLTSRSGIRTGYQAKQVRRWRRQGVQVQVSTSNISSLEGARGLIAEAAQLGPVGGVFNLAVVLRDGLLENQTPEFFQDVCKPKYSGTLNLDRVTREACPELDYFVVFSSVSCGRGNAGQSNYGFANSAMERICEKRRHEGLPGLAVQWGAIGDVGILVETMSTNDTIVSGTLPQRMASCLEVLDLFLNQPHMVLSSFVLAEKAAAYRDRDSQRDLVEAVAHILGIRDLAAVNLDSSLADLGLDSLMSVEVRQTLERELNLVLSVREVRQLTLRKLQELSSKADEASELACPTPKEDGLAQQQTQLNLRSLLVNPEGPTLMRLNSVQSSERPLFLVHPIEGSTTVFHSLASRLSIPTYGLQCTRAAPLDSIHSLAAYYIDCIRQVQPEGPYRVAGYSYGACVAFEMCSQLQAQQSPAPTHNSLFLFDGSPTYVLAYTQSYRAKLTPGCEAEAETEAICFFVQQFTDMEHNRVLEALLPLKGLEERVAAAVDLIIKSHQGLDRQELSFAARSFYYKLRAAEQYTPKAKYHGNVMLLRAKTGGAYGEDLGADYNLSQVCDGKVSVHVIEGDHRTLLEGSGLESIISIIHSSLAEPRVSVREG
The nature of experiment [16]: HepG2 cell cytotoxicity, dose response, cytotoxicity control for Shn3 inhibitor project, CellTiter-Glo, cherry-picked (AID 624134). The experiment is classed as functional, cell-based.
Experiment [17] deals with T3, Fatty acid synthase. Kind of experiment: FAS thioesterase domain inhibitors, dose response, biochemical, endpoint fluorescence intensity, uHTS hits (AID 624327).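 Further: fluorescence from hydrolysis of an O-methyl fluorescein acyl ester substrate by the enzyme.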 Type of experiment: functional.
A short description of experiment [18]: control 3'UTR Renilla luciferase suppression, dose response, counter-screen for Shn3 inhibitor project, cell-based, Clone20-Shn3RL, cherry-picked (AID 624133). The experiment is classed as functional.
Experiment [19] is described as follows: Shn3 3'UTR reporter inhibitors, dose response, cell-based, Clone20 osteoblasts, firefly luciferase, cherry-picked (AID 624132).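 Further: firefly luciferase luminescence from reporter carrying the Shn3 3'UTR in osteoblasts.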 The experiment is classed as functional.
The target in experiment [20] is Cytochrome P450 2C9 (Homo sapiens, UniProt P11712).
Chain of Cytochrome P450 2C9 (P11712 whole entry): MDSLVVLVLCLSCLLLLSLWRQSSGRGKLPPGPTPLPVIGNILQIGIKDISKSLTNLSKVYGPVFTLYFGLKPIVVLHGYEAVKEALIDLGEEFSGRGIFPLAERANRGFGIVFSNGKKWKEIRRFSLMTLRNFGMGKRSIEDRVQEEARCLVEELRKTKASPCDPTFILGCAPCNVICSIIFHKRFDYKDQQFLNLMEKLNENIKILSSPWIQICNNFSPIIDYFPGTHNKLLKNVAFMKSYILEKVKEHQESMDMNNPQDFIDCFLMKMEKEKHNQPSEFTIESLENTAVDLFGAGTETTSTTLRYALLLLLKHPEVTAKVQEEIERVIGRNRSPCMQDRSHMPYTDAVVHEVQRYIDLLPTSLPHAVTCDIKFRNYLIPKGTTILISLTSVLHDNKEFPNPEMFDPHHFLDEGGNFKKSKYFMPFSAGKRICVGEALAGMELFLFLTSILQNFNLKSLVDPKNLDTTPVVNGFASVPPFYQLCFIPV
A short description of experiment [21]: HEp-2 cell cytotoxicity, dose response, cytotoxicity control for RSV inhibitor project, HTS (AID 2410). The experiment is classed as functional. The following applies: human respiratory syncytial virus.

The source made the active and inactive calls. Where only a bound is given, the exact number is not on record here.

Chain of SUMO-activating enzyme (Q9UBE0 whole entry): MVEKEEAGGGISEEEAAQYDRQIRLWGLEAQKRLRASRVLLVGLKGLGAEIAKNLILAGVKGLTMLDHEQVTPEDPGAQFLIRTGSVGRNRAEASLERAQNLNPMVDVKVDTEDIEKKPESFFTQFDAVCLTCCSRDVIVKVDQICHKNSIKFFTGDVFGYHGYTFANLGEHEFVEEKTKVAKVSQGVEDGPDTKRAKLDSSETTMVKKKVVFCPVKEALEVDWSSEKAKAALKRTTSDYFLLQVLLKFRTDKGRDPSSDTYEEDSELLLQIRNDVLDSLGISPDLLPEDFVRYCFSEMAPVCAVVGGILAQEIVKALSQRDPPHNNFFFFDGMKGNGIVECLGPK
Chain of SUMO-activating enzyme (Q9UBT2 whole entry): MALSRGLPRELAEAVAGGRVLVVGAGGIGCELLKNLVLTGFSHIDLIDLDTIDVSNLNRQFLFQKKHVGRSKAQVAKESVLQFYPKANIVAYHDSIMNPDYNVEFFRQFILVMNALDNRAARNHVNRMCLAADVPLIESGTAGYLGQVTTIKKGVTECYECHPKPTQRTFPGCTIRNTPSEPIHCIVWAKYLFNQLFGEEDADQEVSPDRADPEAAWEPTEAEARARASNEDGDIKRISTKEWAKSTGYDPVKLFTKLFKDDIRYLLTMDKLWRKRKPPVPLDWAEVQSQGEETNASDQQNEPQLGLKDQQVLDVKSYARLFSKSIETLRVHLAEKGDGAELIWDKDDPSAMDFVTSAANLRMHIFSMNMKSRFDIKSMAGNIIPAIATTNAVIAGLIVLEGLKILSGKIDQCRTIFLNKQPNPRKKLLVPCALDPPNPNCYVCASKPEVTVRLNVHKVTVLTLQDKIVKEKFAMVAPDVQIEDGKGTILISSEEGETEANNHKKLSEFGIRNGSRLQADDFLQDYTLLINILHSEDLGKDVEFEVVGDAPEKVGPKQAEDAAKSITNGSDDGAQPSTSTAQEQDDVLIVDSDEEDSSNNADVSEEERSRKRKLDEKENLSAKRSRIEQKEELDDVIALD
Chain of DNA dC->dU-editing enzyme APOBEC-3G (Q9HC16 whole entry): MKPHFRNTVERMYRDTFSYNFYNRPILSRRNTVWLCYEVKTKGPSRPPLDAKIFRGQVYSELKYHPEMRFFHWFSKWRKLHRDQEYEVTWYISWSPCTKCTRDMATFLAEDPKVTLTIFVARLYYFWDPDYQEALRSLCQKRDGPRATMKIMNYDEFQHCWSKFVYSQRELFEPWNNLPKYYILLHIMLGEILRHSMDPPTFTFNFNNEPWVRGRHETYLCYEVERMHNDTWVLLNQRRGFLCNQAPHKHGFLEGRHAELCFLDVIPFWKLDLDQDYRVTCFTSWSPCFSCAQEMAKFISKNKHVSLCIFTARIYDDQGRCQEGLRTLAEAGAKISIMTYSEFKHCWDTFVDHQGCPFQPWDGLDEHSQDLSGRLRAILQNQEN

Regarding `Cc1ccc2c(SCC(=O)NCc3ccco3)nc(-c3ccc(F)cc3)nc2c1`, in experiment [1], the IC50 is 50.1 µM (active).
On to `CC(C(=O)NCc1ccccn1)N1C(=O)c2ccccc2C1=O` (stereo not given), for which the IC50 in [2] was > 50 µM (not active).
On to `O=C(COC(=O)CCc1ccccc1)Nc1ncc(Cl)cc1Cl`, for which the IC50 in [2] is 8.03 µM (active).
`Cc1sc(NC(=O)C2CCCCC2C(=O)O)c(C(N)=O)c1-c1ccccc1` (stereo not given): in experiment [3], the IC50 was 11 µM (active).
With `O=C(NC1CCCCCC1)c1ccc[nH]c1=S`, the IC50 in [4] was 21.9 µM (active).
Turning to `CCOC(=O)c1cnn(-c2ncnc3sc4c(c23)CCC4)c1N`, the IC50 in experiment [2] is > 50 µM (not active). The EC50 in [5] is 29.1 µM (active); in experiment [6] it was 11.9 µM (active); in experiment [7] it was 13.8 µM (active).
Turning to `CN(C)CCNc1ncnc2oc(-c3ccccc3)c(-c3ccccc3)c12`, in experiment [8], the AC50 is > 20 µM (inactive).
Take `COc1ccccc1NC(=O)c1sc2nc(-c3ccco3)ccc2c1N`: the IC50 in experiment [1] is 45.2 µM (active).
For `Cc1ccc(/C=C2\SC(=S)N(CCCC(=O)NC3CCCC3)C2=O)cc1`, the IC50 in experiment [9] was > 80 µM (inactive).
Regarding `C=CCNC(=O)C(C#N)c1nc2ccccc2nc1N1CCN(Cc2ccccc2)CC1` (stereo not given), the 50% inhibitory concentration (IC50) in [2] is > 50 µM (inconclusive).
For `CC(C)(C)c1ccc(C(=O)Nc2nnc(SCC(=O)NCC3CCCO3)s2)cc1` (stereo not given), the AC50 in [10] was 2.11 µM (active).
Regarding `CCCc1cc(=O)c2c(O)ccc(OC)c2o1`, in experiment [10], the AC50 was > 350 µM (inactive).
Turning to `COc1ccc(CNc2nc(-c3cccnc3)nn2C(=O)CC(C)C)cc1`, the IC50 in experiment [2] was 0.336 µM (active).
For the compound `CC/C(NCCCN(CC)CC)=C1/C(=O)NC(=O)N(C2CCCCC2)C1=O`, the EC50 in [11] is > 60 µM (not active); in [12], 0.171 µM (active). In [8], the AC50 is > 20 µM (inactive).
In the case of `Cc1c(CC(=O)NCCCC(=O)O)c(=O)oc2cc3c(cc12)CCC(C)(C)O3`, in experiment [9], the IC50 was > 80 µM (inactive).
For the compound `Cc1c(O)ccc(-c2[nH]ncc2-c2nc3ccccc3s2)c1O`, in [3], the IC50 was 6.97 µM (active).
`C=CCSc1nnc(NC(=O)c2ccc(Cl)nc2)s1`: the IC50 in [13] was > 80 µM (inactive).
In the case of `CC1CN(S(=O)(=O)c2cc(C(=O)NCCC3=CCCCC3)ccc2Cl)CC(C)O1` (stereo not given), the AC50 in [14] was 7.96 µM (active).
Regarding `Cn1c(=O)n(C)c2cc(NS(=O)(=O)c3ccccc3)ccc21`, the IC50 in experiment [9] is > 80 µM (inactive).
For `Cc1cc(S(=O)(=O)c2ccc(Cl)cc2)nc(S(=O)(=O)c2ccc(Cl)cc2)c1C#N`, the concentration at half-maximal activity (AC50) was 9.23 µM (active) in experiment [10], 25.9 µM (active) in experiment [16], 21.2 µM (active) in experiment [18] and 2.83 µM (active) in experiment [19]. In addition, the IC50 is 10.4 µM (active) in experiment [15] and 7.57 µM (active) in experiment [17].
For the compound `CCn1c2ccccc2c2cc(/C=N/n3cnnc3S)ccc21`, the values for the AC50 in experiment [10] and in [20] were 10.7 µM (active) and 31.6 µM (inconclusive), respectively. The IC50 in [13] was > 80 µM (inactive). Further, in [21], the CC50 is 25.1 µM (active).
For the compound `O=C(O)c1cccc(NC(=S)N/N=C/c2c[nH]c3ccccc23)c1`, in experiment [3], the IC50 was 17.6 µM (active).
